Measurements taken from paper PMC12647645, “Structural interactions of BWC0977 with Klebsiella pneumoniae topoisomerase IV and biochemical basis of its broad-spectrum activity” (Communications Biology, 2025).
Values after ≈ are worked out from the molar mass of the structure shown.

Tests used:
Human topo IIα = Human topo IIα (Homo sapiens, UniProt P11388); assay: Human topo IIα decatenation assay; format: biochemical; conditions: read-out: IC50 Human topo IIα decatenation
Procedure: (§1) Human topo IIα (0.9 nM) and topo IIß (2.2 nM) decatenation assays were performed following the same protocol used for bacterial topoisomerase IV decatenation assays. The assay buffer was made of 50 mM Tris. HCl (pH 7.5), 125 mM NaCl, 10 mM MgCl2, 5 mM DTT, and 100 μg/mL albumin.

Human topo IIß = Human topo IIß (Homo sapiens, UniProt Q02880); assay: Human topo IIß decatenation assay; format: biochemical
Procedure: as §1

P. aeruginosa gyrase = P. aeruginosa gyrase (Pseudomonas aeruginosa, UniProt P48372+Q9I7C2); assay: biochemical
[1] = molecular target: P. aeruginosa topoisomerase IV (Pseudomonas aeruginosa, UniProt Q9HUJ8+Q9HUK1); assay: Topoisomerase IV decatenation assay, P. aeruginosa; format: biochemical
Procedure: Topoisomerase IV decatenation reactions were performed using 2.5 nM E. coli enzyme and 60 ng kinetoplast DNA (kDNA) in an assay buffer containing 50 mM HEPES-KOH (pH 7.6), 100 mM potassium glutamate, 10 mM magnesium acetate, 10 mM DTT, 1 mM ATP, and 50 μg/mL albumin. Assays with P. aeruginosa topoisomerase IV (3 nM) were conducted in a similar buffer but with 50 mM HEPES-KOH (pH 7.9), 100 mM potassium glutamate, 6 mM magnesium acetate, 6 mM DTT, 1 mM ATP, 2 mM spermidine, and 50 μg/mL albumin. For S. aureus topoisomerase IV assay, the reactions contained 4 nM enzyme in an assay buffer composed of 50 mM Tris-HCl (pH 7.5), 5 mM MgCl₂, 5 mM DTT, 1.5 mM ATP, 350 mM potassium glutamate, and 0.05 mg/mL albumin. The procedures followed were consistent with those used in the supercoiling assays. Decatenated minicircles were resolved on 0.8% agarose gels, while the kDNA substrate remained in the wells. Gels were stained with 0.8 μg/mL ethidium bromide solution for 10 min, followed by destaining. DNA bands were visualized using a gel documentation system, and compound inhibition analysis was carried out using the same procedures described for the supercoiling assays.

[2] = tested on: E. coli MG1655 (GyrA WT, ParC WT); assay: microbe, parasite or virus in culture; format: cell-based; conditions: Escherichia coli
[3] = tested on: E. coli MG1655 GyrA D82N, ParC WT; assay: microbe, parasite or virus in culture; format: cell-based; conditions: Escherichia coli
[4] = tested on: E. coli MG1655 GyrA WT, ParC D79N; assay: microbe, parasite or virus in culture; format: cell-based; conditions: Escherichia coli
[5] = tested on: E. coli MG1655 GyrA D82N, ParC D79N; assay: microbe, parasite or virus in culture; format: cell-based; conditions: Escherichia coli
[6] = tested on: E. coli MG1655 GyrA M120A, ParC M118A; assay: microbe, parasite or virus in culture; format: cell-based; conditions: Escherichia coli
[7] = tested on: E. coli MG1655 GyrA R121K, ParC WT; assay: microbe, parasite or virus in culture; format: cell-based; conditions: Escherichia coli
[8] = tested on: E. coli MG1655 GyrA WT, ParC R119K; assay: microbe, parasite or virus in culture; format: cell-based; conditions: Escherichia coli
K. pneumoniae ATCC 13883 = assay: MIC broth microdilution; format: cell-based; conditions: Klebsiella pneumoniae, ATCC13883
S. aureus ATCC 29213 = assay: MIC broth microdilution; format: cell-based; conditions: Staphylococcus aureus, ATCC29213
E. coli ATCC 25922 [9] = assay: MIC broth microdilution; format: cell-based; conditions: Escherichia coli, ATCC25922
A. baumannii ATCC 19606 = assay: MIC broth microdilution; format: cell-based; conditions: Acinetobacter baumannii, ATCC19606
E. faecalis ATCC 29212 = assay: MIC broth microdilution; format: cell-based; conditions: Enterococcus faecalis, ATCC29212
P. aeruginosa ATCC 27853 = assay: MIC broth microdilution; format: cell-based; conditions: Pseudomonas aeruginosa, ATCC27853
E. coli BAA 2471 = assay: microbe, parasite or virus in culture; format: cell-based; conditions: Escherichia coli, BAA2471
E. coli BAA 2469 = assay: microbe, parasite or virus in culture; format: cell-based; conditions: Escherichia coli, BAA2469
K. pneumoniae BAA 2782 = assay: microbe, parasite or virus in culture; format: cell-based; conditions: Klebsiella pneumoniae, BAA2782
K. pneumoniae BAA 2784 = assay: microbe, parasite or virus in culture; format: cell-based; conditions: Klebsiella pneumoniae, BAA2784
A. baumannii BAA 2885 = assay: microbe, parasite or virus in culture; format: cell-based; conditions: Acinetobacter baumannii, BAA2885
K. pneumoniae KPNIH1 = assay: microbe, parasite or virus in culture; format: cell-based; conditions: Klebsiella pneumoniae
P. aeruginosa BAA 2794 = assay: microbe, parasite or virus in culture; format: cell-based; conditions: Pseudomonas aeruginosa, BAA2794
P. aeruginosa BAA 2797 = assay: microbe, parasite or virus in culture; format: cell-based; conditions: Pseudomonas aeruginosa, BAA2797
E. coli ATCC 25922 [10] = assay: Resistant mutant generation by serial passage method; format: cell-based; conditions: Escherichia coli, read-out: MIC, serial passage
K. pneumoniae = conditions: ref 7 (Arends et al., 2019); cited from earlier work
E. faecalis = tested on: E. faecalis; set-up: method as in ref 7 (Arends et al., 2019); conditions: ref 7 (Arends et al., 2019); cited from earlier work
S. aureus = conditions: ref 8 (Flamm et al., 2017); cited from earlier work
E. cloacae = conditions: ref 7 (Arends et al., 2019); cited from earlier work
E. coli = conditions: ref 8 (Flamm et al., 2017); cited from earlier work

P. aeruginosa gyrase, sequence (Q9I7C2 whole entry): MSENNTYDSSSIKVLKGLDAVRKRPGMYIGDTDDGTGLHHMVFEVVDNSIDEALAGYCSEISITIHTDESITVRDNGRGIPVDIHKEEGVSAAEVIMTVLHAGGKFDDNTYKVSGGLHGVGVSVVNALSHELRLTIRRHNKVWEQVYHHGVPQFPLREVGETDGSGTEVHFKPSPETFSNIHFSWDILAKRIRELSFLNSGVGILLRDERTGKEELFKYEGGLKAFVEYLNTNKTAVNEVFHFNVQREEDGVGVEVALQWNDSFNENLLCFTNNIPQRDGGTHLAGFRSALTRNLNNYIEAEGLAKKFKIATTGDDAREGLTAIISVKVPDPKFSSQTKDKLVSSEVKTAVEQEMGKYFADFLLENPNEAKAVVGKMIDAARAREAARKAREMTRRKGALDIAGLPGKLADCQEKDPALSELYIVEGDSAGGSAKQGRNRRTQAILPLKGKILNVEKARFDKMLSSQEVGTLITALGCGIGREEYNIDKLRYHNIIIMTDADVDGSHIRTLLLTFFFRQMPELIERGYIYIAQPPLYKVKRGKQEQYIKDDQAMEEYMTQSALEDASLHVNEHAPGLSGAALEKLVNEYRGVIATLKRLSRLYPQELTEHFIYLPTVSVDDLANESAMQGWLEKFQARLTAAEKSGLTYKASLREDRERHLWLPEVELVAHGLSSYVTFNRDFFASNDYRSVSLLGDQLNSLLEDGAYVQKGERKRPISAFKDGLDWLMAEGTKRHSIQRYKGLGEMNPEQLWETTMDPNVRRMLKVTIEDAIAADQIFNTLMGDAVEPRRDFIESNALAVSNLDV
P. aeruginosa gyrase, sequence (P48372 whole entry): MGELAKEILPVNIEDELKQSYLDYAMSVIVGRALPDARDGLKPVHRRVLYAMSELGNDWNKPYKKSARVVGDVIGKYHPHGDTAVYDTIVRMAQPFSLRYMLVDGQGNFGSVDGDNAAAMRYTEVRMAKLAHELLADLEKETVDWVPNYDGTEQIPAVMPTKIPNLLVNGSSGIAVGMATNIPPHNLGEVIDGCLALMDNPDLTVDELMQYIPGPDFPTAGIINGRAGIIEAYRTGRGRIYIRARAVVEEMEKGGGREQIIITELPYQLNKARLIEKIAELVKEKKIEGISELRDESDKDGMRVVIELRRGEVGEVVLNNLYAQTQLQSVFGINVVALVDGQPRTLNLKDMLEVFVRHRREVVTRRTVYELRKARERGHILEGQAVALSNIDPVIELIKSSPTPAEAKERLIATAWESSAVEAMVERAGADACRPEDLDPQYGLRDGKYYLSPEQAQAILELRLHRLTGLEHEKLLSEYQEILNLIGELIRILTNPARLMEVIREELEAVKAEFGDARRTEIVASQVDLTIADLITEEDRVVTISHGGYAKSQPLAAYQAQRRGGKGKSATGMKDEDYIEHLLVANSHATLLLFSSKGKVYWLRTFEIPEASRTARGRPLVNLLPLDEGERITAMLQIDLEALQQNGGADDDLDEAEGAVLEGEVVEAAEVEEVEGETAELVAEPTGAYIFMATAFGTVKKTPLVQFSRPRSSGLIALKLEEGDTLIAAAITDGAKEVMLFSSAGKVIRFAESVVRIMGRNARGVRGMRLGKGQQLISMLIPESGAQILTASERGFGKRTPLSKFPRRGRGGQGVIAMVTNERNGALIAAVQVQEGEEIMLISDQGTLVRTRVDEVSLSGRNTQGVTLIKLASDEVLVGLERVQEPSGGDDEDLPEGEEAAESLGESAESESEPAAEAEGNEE
Human topo IIß, sequence (Q02880 whole entry): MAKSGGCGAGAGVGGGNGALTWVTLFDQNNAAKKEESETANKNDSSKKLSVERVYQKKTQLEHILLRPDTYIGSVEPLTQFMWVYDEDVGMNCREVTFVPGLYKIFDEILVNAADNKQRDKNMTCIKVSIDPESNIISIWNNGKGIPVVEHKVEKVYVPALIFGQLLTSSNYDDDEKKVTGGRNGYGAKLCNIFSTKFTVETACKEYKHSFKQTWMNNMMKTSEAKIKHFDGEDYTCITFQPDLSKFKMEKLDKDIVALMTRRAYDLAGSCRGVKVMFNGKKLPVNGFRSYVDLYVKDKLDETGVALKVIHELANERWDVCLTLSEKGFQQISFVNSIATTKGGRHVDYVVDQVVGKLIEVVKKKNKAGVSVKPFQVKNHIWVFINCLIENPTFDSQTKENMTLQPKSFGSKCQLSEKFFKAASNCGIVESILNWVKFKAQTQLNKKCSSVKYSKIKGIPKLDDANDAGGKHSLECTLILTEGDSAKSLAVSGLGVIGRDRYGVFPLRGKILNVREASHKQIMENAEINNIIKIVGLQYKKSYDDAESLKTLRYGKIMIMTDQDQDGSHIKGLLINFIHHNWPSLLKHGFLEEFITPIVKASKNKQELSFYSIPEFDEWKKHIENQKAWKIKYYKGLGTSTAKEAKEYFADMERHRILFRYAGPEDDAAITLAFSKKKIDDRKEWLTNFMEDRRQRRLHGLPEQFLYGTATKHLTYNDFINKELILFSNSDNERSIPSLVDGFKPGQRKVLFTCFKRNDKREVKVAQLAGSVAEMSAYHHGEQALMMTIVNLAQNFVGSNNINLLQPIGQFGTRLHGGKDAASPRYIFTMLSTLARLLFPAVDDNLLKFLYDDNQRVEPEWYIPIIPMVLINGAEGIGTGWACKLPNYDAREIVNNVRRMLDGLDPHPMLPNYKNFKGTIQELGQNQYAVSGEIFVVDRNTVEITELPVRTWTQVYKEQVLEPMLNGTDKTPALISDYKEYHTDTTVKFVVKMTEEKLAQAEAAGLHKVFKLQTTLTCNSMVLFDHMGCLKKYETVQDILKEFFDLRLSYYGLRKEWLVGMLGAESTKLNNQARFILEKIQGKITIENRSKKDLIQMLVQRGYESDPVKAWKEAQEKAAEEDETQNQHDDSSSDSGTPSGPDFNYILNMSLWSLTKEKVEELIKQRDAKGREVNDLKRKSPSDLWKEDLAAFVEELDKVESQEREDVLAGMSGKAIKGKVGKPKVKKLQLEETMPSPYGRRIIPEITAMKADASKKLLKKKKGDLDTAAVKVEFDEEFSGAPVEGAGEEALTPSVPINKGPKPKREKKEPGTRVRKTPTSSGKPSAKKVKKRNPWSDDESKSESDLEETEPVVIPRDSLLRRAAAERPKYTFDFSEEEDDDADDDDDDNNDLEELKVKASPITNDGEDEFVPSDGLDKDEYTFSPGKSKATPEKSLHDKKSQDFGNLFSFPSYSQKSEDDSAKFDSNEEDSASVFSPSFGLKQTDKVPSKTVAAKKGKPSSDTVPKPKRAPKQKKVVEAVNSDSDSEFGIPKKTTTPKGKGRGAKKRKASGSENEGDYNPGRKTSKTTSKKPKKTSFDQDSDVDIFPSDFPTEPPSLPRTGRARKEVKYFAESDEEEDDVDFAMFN
P. aeruginosa topoisomerase IV, sequence (Q9HUK1 whole entry): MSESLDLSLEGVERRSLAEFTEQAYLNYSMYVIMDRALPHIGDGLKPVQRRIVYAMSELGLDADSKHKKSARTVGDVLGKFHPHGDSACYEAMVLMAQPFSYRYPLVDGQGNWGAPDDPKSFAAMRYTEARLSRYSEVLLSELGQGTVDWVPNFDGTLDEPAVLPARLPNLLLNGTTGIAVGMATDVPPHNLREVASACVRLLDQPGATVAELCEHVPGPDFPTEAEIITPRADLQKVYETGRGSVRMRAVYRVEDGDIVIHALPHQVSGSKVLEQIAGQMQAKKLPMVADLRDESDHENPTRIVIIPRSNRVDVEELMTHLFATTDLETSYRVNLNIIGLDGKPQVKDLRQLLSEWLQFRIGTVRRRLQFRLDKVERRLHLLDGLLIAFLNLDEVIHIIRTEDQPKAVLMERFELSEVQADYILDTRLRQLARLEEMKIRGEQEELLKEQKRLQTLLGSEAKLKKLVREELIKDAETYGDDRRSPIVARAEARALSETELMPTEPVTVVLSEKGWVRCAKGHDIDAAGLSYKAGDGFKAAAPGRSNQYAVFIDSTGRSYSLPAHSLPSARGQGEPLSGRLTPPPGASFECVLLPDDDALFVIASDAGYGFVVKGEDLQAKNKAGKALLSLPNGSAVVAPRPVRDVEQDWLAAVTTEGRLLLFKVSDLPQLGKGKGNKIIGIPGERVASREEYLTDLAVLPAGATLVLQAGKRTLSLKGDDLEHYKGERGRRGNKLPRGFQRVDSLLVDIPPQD
P. aeruginosa topoisomerase IV, sequence (Q9HUJ8 whole entry): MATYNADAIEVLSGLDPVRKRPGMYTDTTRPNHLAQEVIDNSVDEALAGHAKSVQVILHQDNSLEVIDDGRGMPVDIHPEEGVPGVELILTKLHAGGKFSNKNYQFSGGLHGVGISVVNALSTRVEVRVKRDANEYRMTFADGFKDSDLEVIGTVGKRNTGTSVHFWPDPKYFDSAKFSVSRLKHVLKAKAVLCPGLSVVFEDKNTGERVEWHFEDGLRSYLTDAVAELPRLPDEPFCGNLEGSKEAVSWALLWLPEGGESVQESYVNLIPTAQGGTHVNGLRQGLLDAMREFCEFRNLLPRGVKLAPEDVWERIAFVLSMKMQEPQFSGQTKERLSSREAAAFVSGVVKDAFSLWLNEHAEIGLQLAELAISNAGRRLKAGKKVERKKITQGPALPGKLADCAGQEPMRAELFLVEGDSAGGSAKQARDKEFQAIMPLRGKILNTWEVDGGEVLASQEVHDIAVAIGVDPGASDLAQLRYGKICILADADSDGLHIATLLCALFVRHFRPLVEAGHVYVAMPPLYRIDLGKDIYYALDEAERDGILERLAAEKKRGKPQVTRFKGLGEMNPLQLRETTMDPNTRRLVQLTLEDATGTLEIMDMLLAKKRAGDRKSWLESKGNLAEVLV

O=c1ccc2ncc(=O)n3c2n1C[C@H]3CN1CCC(NCc2cc3c(cn2)OCCC3)CC1 [Gepotidacin, reference compound]
IC50 (Human topo IIα): > 200 µM | IC50 (Human topo IIß): > 200 µM | IC50 (P. aeruginosa gyrase): 0.35 µM | IC50 [1]: 1.56 µM | MIC [2]: 0.47 µg/mL (≈ 1.05 µM) | MIC [3]: 0.42 µg/mL (≈ 0.936 µM) | MIC [4]: 0.83 µg/mL (≈ 1.85 µM) | MIC [5]: > 40 µg/mL | MIC [6]: 0.63 µg/mL (≈ 1.4 µM) | MIC [7]: 0.13 µg/mL (≈ 0.29 µM) | MIC [8]: 0.42 µg/mL (≈ 0.936 µM) | MIC (K. pneumoniae ATCC 13883): 1 µg/mL (≈ 2.23 µM) | MIC (S. aureus ATCC 29213): 0.125 µg/mL (≈ 0.279 µM) | MIC (E. coli ATCC 25922 [9]): 0.5 µg/mL (≈ 1.11 µM) | MIC (A. baumannii ATCC 19606): 2 µg/mL (≈ 4.46 µM) | MIC (E. faecalis ATCC 29212): 1 µg/mL (≈ 2.23 µM) | MIC (P. aeruginosa ATCC 27853): 1 µg/mL (≈ 2.23 µM) | MIC (E. coli BAA 2471): 2 µg/mL (≈ 4.46 µM) | MIC (E. coli BAA 2469): 0.5 µg/mL (≈ 1.11 µM) | MIC (K. pneumoniae BAA 2782): 1 µg/mL (≈ 2.23 µM) | MIC (K. pneumoniae BAA 2784): 1 µg/mL (≈ 2.23 µM) | MIC (A. baumannii BAA 2885): 2 µg/mL (≈ 4.46 µM) | MIC (K. pneumoniae KPNIH1): 8 µg/mL (≈ 17.8 µM) | MIC (P. aeruginosa BAA 2794): 0.5 µg/mL (≈ 1.11 µM) | MIC (P. aeruginosa BAA 2797): 1 µg/mL (≈ 2.23 µM) | MIC (E. coli ATCC 25922 [10]; ATCC25922, 24 h): 0.25 µg/mL (≈ 0.557 µM) | MIC (E. coli ATCC 25922 [10]; ATCC25922, 288 h): 1.25 µg/mL (≈ 2.79 µM) | MIC90 against diverse global isolates (K. pneumoniae): 16 µg/mL (≈ 35.7 µM) | MIC90 against diverse global isolates (E. faecalis): 2 µg/mL (≈ 4.46 µM) | MIC90 against diverse global isolates (S. aureus): 0.5 µg/mL (≈ 1.11 µM) | MIC90 against diverse global isolates (E. cloacae): 16 µg/mL (≈ 35.7 µM) | MIC90 against diverse global isolates (E. coli): 4 µg/mL (≈ 8.92 µM)
